Publication PMC2919500 (Biochemistry, 2008)
Where two headings read alike, the source gives them in different places.

What was measured:
AKT1 PH domain [1] = target: T1, AKT1 PH domain (Homo sapiens, UniProt P31749); assay: Direct IP6 titration of the free PH domain; conditions: read-out: KD(IP6); free WT AKT1 PH domain, 25 °C, binding buffer pH 7.4
AKT1 E17K PH domain [2] = target: T2, AKT1 E17K PH domain (Homo sapiens, UniProt P31749, E17K); assay: Direct IP6 titration of the free PH domain; type: binding
PLCδ1 PH domain [3] = target: T3, PLCδ1 PH domain (Mus musculus, UniProt Q8R3B1); assay: Direct IP6 titration of the free PH domain; conditions: read-out: KD(IP6), 25 °C, binding buffer pH 7.4
T3 sequence (Q8R3B1 12-142): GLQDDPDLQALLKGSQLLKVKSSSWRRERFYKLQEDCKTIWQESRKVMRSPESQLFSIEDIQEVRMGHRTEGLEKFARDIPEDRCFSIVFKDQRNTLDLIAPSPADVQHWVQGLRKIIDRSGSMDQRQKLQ

AKT1 PH domain [4] = target: T1, AKT1 PH domain; assay: IP6 competitive displacement assay
AKT1 E17K PH domain [5] = target: T2, AKT1 E17K PH domain; assay: IP6 competitive displacement assay; conditions: for Ki: read-out: KI(IP6)
PLCδ1 PH domain [6] = target: T3, PLCδ1 PH domain; assay: IP6 competitive displacement assay
Citrine-AKT1 PH = Citrine-AKT1 PH (Homo sapiens, UniProt P31749); assay: Plasma membrane targeting in live NIH 3T3 cells; type: cell-based; conditions: serum-starved NIH 3T3 cells, 10 nM PDGF 5 min, then 800 nM wortmannin 15 min
RFP-AKT1 E17K PH = RFP-AKT1 E17K PH (Homo sapiens, UniProt P31749, E17K); assay: Plasma membrane targeting in live NIH 3T3 cells; type: cell-based; conditions: serum starvation with inhibitor prior to imaging, data not shown
CFP-PLCδ1 PH = target: T4, CFP-PLCδ1 PH (Homo sapiens, UniProt P51178); assay: Plasma membrane targeting in live NIH 3T3 cells; type: cell-based; conditions: serum starvation with inhibitor prior to imaging, data not shown
T4 sequence (P51178 21-130 limits assumed): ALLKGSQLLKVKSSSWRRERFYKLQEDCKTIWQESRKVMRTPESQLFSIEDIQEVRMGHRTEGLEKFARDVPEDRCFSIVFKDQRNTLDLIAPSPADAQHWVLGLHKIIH

AKT1 E17K PH domain [7] = target: T2, AKT1 E17K PH domain; assay: Stopped-flow association and dissociation kinetics

T2 sequence (P31749 1-120 E17K): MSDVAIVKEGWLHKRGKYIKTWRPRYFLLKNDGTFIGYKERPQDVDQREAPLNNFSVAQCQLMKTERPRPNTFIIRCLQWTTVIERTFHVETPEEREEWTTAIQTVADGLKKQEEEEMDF
T1 sequence (P31749 1-120): as the sequence (P31749 1-120 E17K) above, with K17E counted along it
Chain of Citrine-AKT1 PH (P31749 5-108 limits assumed): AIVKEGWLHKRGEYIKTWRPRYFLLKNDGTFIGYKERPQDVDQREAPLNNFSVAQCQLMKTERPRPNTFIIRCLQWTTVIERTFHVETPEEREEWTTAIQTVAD
Chain of RFP-AKT1 E17K PH (P31749 5-108 E17K limits assumed): as the sequence (P31749 5-108 limits assumed) above, with E13K counted along it

In the case of `O=P(O)(O)OC1C(OP(=O)(O)O)C(OP(=O)(O)O)C(OP(=O)(O)O)C(OP(=O)(O)O)C1OP(=O)(O)O` (stereo not drawn) [IP6, inositol 1,2,3,4,5,6-hexakisphosphate], the Kd (AKT1 PH domain [1]) is reported as 260 ± 50 µM, the Kd (AKT1 E17K PH domain [2]; read-out: KD(IP6), free AKT1 E17K PH domain, 25 °C, binding buffer pH 7.4) is reported as 11 ± 1 µM and the “additional IP6 binding free energy from the E17K mutation” value (AKT1 E17K PH domain [2]; ΔΔG, E17K versus WT AKT1 PH) is reported as 3.0 RT. The Kd (PLCδ1 PH domain [3]) was 3 ± 0.2 µM, the Ki (AKT1 PH domain [4]; read-out: KI(IP6), displacement of AKT1 PH from PM(+)PI(3,4,5)P3) was 28000 ± 1000 µM and the Ki (AKT1 E17K PH domain [5]; displacement of AKT1 E17K PH from PM(+)PI(3,4,5)P3) was 8000 ± 2000 µM. The Ki (AKT1 E17K PH domain [5]; displacement of AKT1 E17K PH from PM(+)PI(4,5)P2) was 210 ± 10 µM and the Ki (PLCδ1 PH domain [6]; read-out: KI(IP6), displacement of PLCδ1 PH from PM(+)PI(4,5)P2) was 47 ± 4 µM.
For `COC[C@H]1OC(=O)c2coc3c2[C@@]1(C)C1=C(C3=O)[C@@H]2CCC(=O)[C@@]2(C)C[C@H]1OC(C)=O` [wortmannin], the “localization of the WT AKT1 PH domain after PI3K inhibition” value (Citrine-AKT1 PH) was “returns to the cytoplasm”, the “constitutive plasma membrane targeting in the presence of a PI3K inhibitor” value (RFP-AKT1 E17K PH) was “not disrupted” and the “constitutive plasma membrane targeting in the presence of a PI3K inhibitor” value (CFP-PLCδ1 PH) was “not disrupted”.
With “L-α-phosphatidylinositol 4,5-bisphosphate [PI(4,5)P2]” the kon (AKT1 E17K PH domain [7]; 0.5 µM protein, 200 µM total lipid, 25 °C) was 1.3 ± 0.1 ×10^7 M^−1 s^−1, the koff (AKT1 E17K PH domain [7]; dissociation with excess IP6 (40 mM), 25 °C) was 1.5 ± 0.1 s⁻¹ and the Kd (AKT1 E17K PH domain [7]; read-out: KD (koff/kon), calculated from the rate constants) was 0.12 ± 0.01 µM. For the same compound, the Kd (AKT1 PH domain [4]; read-out: KD(PIPn), WT AKT1 PH, PIP lipid embedded in synthetic plasma membrane, from KD(IP6) and KI(IP6)) was greater than 10 µM, the “affinity enhancement by E17K larger than for the other two ligands” value (AKT1 E17K PH domain [5]; PI(4,5)P2 versus IP6 and PI(3,4,5)P3) was “at least 10 fold” and the Kd (AKT1 E17K PH domain [5]; read-out: KD(PIPn), AKT1 E17K PH, PIP lipid embedded in synthetic plasma membrane, from KD(IP6) and KI(IP6)) was 0.13 ± 0.03 µM. It also gave a Kd (PLCδ1 PH domain [6]; read-out: KD(PIPn), PLCδ1 PH, PIP lipid embedded in synthetic plasma membrane, from KD(IP6) and KI(IP6)) of 0.19 ± 0.07 µM.
